Consider seven molecules from patent publication US11225505B2, “Antimicrobial polymyxin derivative compounds” (MONASH UNIVERSITY, priority 2015, dated 2022).

Structures are written as SMILES. Values after ≈ are worked out from the molar mass of the structure shown. Where a SMILES comes first, the peptide text is derived from it. Bridges are numbered along the chain shown (N, C = ends). [ ]: non-standard residue; d: D form. The star is where a group is joined. Benzofuran(2-CO) = O=C(c1cc2ccccc2o1)*; X35 = O=C(c1cc(-c2ccc(Cl)cc2)on1)*; dNle = CCCC[C@@H](N)C(=O)O; dNva = CCC[C@@H](N)C(=O)O; X29 = O=C(c1cc(Cl)ccn1)*; X59 = Cn1c(Br)ccc1C(=O)*; Dab = NCC[C@H](N)C(=O)O; X60 = O=C(c1cnc(Br)s1)*; Abu = CC[C@H](N)C(=O)O; Dap = NC[C@H](N)C(=O)O

Holding throughout (format): cell-based
The test system of experiment [1] is Klebsiella pneumoniae FADDI-KP032. Conditions: FADDI-KP032. In outline: (§1)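 Lipopeptide TFA salts were serially diluted in cation-adjusted Mueller-Hinton broth, inoculated with polymyxin-susceptible Gram-negative bacteria and scored for MIC according to CLSI guidance (M100-S24). Polymyxin B sulphate was included as comparator.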
The test system of experiment [2] is Pseudomonas aeruginosa FADDI-PA01. Conditions: FADDI-. In outline:
as §1

Experiment [3] has as its system Acinetobacter baumannii ATCC 17978. Conditions: ATCC 17978. In outline: as §1
For experiment [4], the system named is Acinetobacter baumannii FADDI-AB034. Conditions: FADDI-AB034. In outline: as §1
Experiment [5] relates to Pseudomonas aeruginosa FADDI-PA022. Particulars: FADDI-PA022. In outline: as §1
Experiment [6] concerns Enterobacter cloacae FADDI-EC003. Particulars: FADDI-EC003. In outline: as §1
In experiment [7] the test system is Pseudomonas aeruginosa ATCC 27853. Conditions: ATCC 27853. In a few lines: as §1
Experiment [8] concerns Enterobacter cloacae FADDI-EC006. Conditions: FADDI-EC006. In a few lines:
as §1

The test system of experiment [9] is Pseudomonas aeruginosa FADDI-PA038. Conditions: FADDI-PA038. In outline: as §1
In experiment [10] the test system is Klebsiella pneumoniae FADDI-KP022. Particulars: FADDI-KP022. In a few lines:
as §1

In experiment [11] the test system is Klebsiella pneumoniae Kp BM1. Conditions: Kp BM1. In outline: as §1
The subject of experiment [12] is Enterobacter cloacae FADDI-EC001. Particulars: FADDI-EC001. In outline: as §1
The test system of experiment [13] is Acinetobacter baumannii FADDI-AB030. Nature of the experiment: microbe, parasite or virus in culture. Particulars: FADDI-AB030. In a few lines:
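Lipopeptide TFA salts tested against the multidrug-resistant clinical isolate by CLSI (M100-S24) broth microdilution in cation-adjusted Mueller-Hinton broth, with polymyxin B sulphate as control; MIC read.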

As for `CC[C@@H]1NC(=O)[C@@H](CC(C)C)NC(=O)[C@H](CCN)NC(=O)[C@@H](NC(=O)[C@H](CN)NC(=O)[C@@H](NC(=O)[C@H](CCN)NC(=O)c2cnc(Br)s2)[C@@H](C)O)CCNC(=O)[C@H]([C@@H](C)O)NC(=O)[C@H](CCN)NC(=O)[C@H](CCN)NC1=O` [Compound 91] (X60-[Dab]T[Dap][Dab][Dab][dL][Abu][Dab][Dab]T; lactam 4-C), the Minimum inhibitory concentration is 0.5 µg/mL (≈ 0.425 µM) in experiment [1]; 0.5 µg/mL (≈ 0.425 µM) in [2]; 2 µg/mL (≈ 1.7 µM) in experiment [3]; 2 µg/mL (≈ 1.7 µM) in experiment [4]; 0.5 µg/mL (≈ 0.425 µM) in experiment [5]; 1 µg/mL (≈ 0.849 µM) in [6]. Besides, the Minimum inhibitory concentration in experiment [7] was 0.5 µg/mL (≈ 0.425 µM); in experiment [8], 0.5 µg/mL (≈ 0.425 µM); in experiment [9] it was 1 µg/mL (≈ 0.849 µM); in experiment [10], below 0.125 µg/mL; in experiment [11], 0.5 µg/mL (≈ 0.425 µM); in [12], 0.5 µg/mL (≈ 0.425 µM). Further, the Minimum inhibitory concentration in experiment [13] came to 1 µg/mL (≈ 0.849 µM).

As to `CC[C@@H]1NC(=O)[C@@H](CC(C)C)NC(=O)[C@H](CCN)NC(=O)[C@@H](NC(=O)[C@H](CN)NC(=O)[C@@H](NC(=O)[C@H](CCN)NC(=O)c2cc3ccccc3o2)[C@@H](C)O)CCNC(=O)[C@H]([C@@H](C)O)NC(=O)[C@H](CCN)NC(=O)[C@H](CCN)NC1=O` [Compound 92] ({Benzofuran(2-CO)}-[Dab]T[Dap][Dab][Dab][dL][Abu][Dab][Dab]T; lactam 4-C), the Minimum inhibitory concentration stood at 0.5 µg/mL (≈ 0.442 µM) in [1]; 0.5 µg/mL (≈ 0.442 µM) in [2]; 1 µg/mL (≈ 0.884 µM) in experiment [3]; 0.5 µg/mL (≈ 0.442 µM) in [4]; 0.5 µg/mL (≈ 0.442 µM) in [5]; 0.25 µg/mL (≈ 0.221 µM) in experiment [6]. Moreover, the Minimum inhibitory concentration in [7] is 0.5 µg/mL (≈ 0.442 µM); in experiment [8], below 0.125 µg/mL; in [9], 0.5 µg/mL (≈ 0.442 µM); in experiment [10], below 0.125 µg/mL; in experiment [11] it was 0.5 µg/mL (≈ 0.442 µM); in experiment [12] it was below 0.125 µg/mL. Besides, in experiment [13], the Minimum inhibitory concentration was found to be 0.5 µg/mL (≈ 0.442 µM).

Turning to `CC[C@@H]1NC(=O)[C@@H](CC(C)C)NC(=O)[C@H](CCN)NC(=O)[C@@H](NC(=O)[C@H](CN)NC(=O)[C@@H](NC(=O)[C@H](CCN)NC(=O)c2ccc(Br)n2C)[C@@H](C)O)CCNC(=O)[C@H]([C@@H](C)O)NC(=O)[C@H](CCN)NC(=O)[C@H](CCN)NC1=O` [Compound 93] (X59-[Dab]T[Dap][Dab][Dab][dL][Abu][Dab][Dab]T; lactam 4-C; N-terminus assumed), the Minimum inhibitory concentration in [1] is 0.5 µg/mL (≈ 0.426 µM); in [2], 0.5 µg/mL (≈ 0.426 µM); in experiment [3], 2 µg/mL (≈ 1.7 µM); in [4], 1 µg/mL (≈ 0.852 µM); in experiment [5], 0.5 µg/mL (≈ 0.426 µM); in experiment [6], 0.5 µg/mL (≈ 0.426 µM). For the same molecule, the Minimum inhibitory concentration in experiment [7] is 0.5 µg/mL (≈ 0.426 µM); in experiment [8], 0.25 µg/mL (≈ 0.213 µM); in experiment [9] it was 1 µg/mL (≈ 0.852 µM); in [10], below 0.125 µg/mL; in [11], 0.25 µg/mL (≈ 0.213 µM); in experiment [12], below 0.125 µg/mL. In experiment [13], the Minimum inhibitory concentration is 0.5 µg/mL (≈ 0.426 µM).

For the molecule `CC[C@@H]1NC(=O)[C@@H](CC(C)C)NC(=O)[C@H](CCN)NC(=O)[C@@H](NC(=O)[C@H](CN)NC(=O)[C@@H](NC(=O)[C@H](CCN)NC(=O)c2cc(-c3ccc(Cl)cc3)on2)[C@@H](C)O)CCNC(=O)[C@H]([C@@H](C)O)NC(=O)[C@H](CCN)NC(=O)[C@H](CCN)NC1=O` [Compound 94] (X35-[Dab]T[Dap][Dab][Dab][dL][Abu][Dab][Dab]T; lactam 4-C), the Minimum inhibitory concentration is below 0.125 µg/mL in experiment [1]; 0.5 µg/mL (≈ 0.419 µM) in [2]; 1 µg/mL (≈ 0.838 µM) in [3]; 0.5 µg/mL (≈ 0.419 µM) in [4]; 0.5 µg/mL (≈ 0.419 µM) in experiment [5]; 0.25 µg/mL (≈ 0.21 µM) in [6]. The Minimum inhibitory concentration in experiment [7] is 0.5 µg/mL (≈ 0.419 µM); in experiment [8] it was below 0.125 µg/mL; in experiment [9] it was 1 µg/mL (≈ 0.838 µM); in [10] it was below 0.125 µg/mL; in experiment [11] it was 0.5 µg/mL (≈ 0.419 µM); in [12], 0.25 µg/mL (≈ 0.21 µM). Besides, the Minimum inhibitory concentration in experiment [13] came out at 0.25 µg/mL (≈ 0.21 µM).

On to `CCCC[C@H]1NC(=O)[C@H](CCN)NC(=O)[C@@H](NC(=O)[C@H](CN)NC(=O)[C@@H](NC(=O)[C@H](CCN)NC(=O)c2cc(Cl)ccn2)[C@@H](C)O)CCNC(=O)[C@H]([C@@H](C)O)NC(=O)[C@H](CCN)NC(=O)[C@H](CCN)NC(=O)[C@H](CC)NC1=O` [Compound 95] (X29-[Dab]T[Dap][Dab][Dab][dNle][Abu][Dab][Dab]T; lactam 4-C), for which the Minimum inhibitory concentration was below 0.125 µg/mL in experiment [1]; below 0.125 µg/mL in experiment [2]; 0.25 µg/mL (≈ 0.222 µM) in experiment [3]; 0.25 µg/mL (≈ 0.222 µM) in experiment [4]; 0.25 µg/mL (≈ 0.222 µM) in [5]; 0.25 µg/mL (≈ 0.222 µM) in experiment [6]. The Minimum inhibitory concentration in experiment [7] is 0.25 µg/mL (≈ 0.222 µM); in [8], below 0.125 µg/mL; in experiment [9], 1 µg/mL (≈ 0.888 µM); in experiment [10] it was 0.25 µg/mL (≈ 0.222 µM); in experiment [11] it was 0.5 µg/mL (≈ 0.444 µM); in experiment [12] it was below 0.125 µg/mL. The same molecule registered a Minimum inhibitory concentration in [13] of 0.25 µg/mL (≈ 0.222 µM).

Take `CCC[C@H]1NC(=O)[C@H](CCN)NC(=O)[C@@H](NC(=O)[C@H](CN)NC(=O)[C@@H](NC(=O)[C@H](CCN)NC(=O)c2cc(Cl)ccn2)[C@@H](C)O)CCNC(=O)[C@H]([C@@H](C)O)NC(=O)[C@H](CCN)NC(=O)[C@H](CCN)NC(=O)[C@H](CC)NC1=O` [Compound 96] (X29-[Dab]T[Dap][Dab][Dab][dNva][Abu][Dab][Dab]T; lactam 4-C): the Minimum inhibitory concentration was determined as 0.5 µg/mL (≈ 0.449 µM) in experiment [1]; 0.25 µg/mL (≈ 0.225 µM) in experiment [2]; 1 µg/mL (≈ 0.899 µM) in experiment [3]; 1 µg/mL (≈ 0.899 µM) in experiment [4]; 0.25 µg/mL (≈ 0.225 µM) in experiment [5]; 0.5 µg/mL (≈ 0.449 µM) in experiment [6]. For the same molecule, the Minimum inhibitory concentration in experiment [7] was 0.25 µg/mL (≈ 0.225 µM); in [8], 0.5 µg/mL (≈ 0.449 µM); in experiment [9], 1 µg/mL (≈ 0.899 µM); in experiment [10] it was 0.25 µg/mL (≈ 0.225 µM); in experiment [11], 1 µg/mL (≈ 0.899 µM); in [12] it was 0.25 µg/mL (≈ 0.225 µM). In experiment [13], the Minimum inhibitory concentration stood at 2 µg/mL (≈ 1.8 µM).

`CC(C)C[C@H]1NC(=O)[C@H](CCN)NC(=O)[C@@H](NC(=O)[C@H](CN)NC(=O)[C@@H](NC(=O)[C@H](CCN)NC(=O)c2cc(Cl)ccn2)[C@@H](C)O)CCNC(=O)[C@H]([C@@H](C)O)NC(=O)[C@H](CCN)NC(=O)[C@H](CCN)NC(=O)[C@H](C)NC1=O` [Compound 97] (X29-[Dab]T[Dap][Dab][Dab][dL]A[Dab][Dab]T; lactam 4-C): the Minimum inhibitory concentration in experiment [1] amounted to 0.5 µg/mL (≈ 0.449 µM); in experiment [2], 0.25 µg/mL (≈ 0.225 µM); in experiment [3] it was 2 µg/mL (≈ 1.8 µM); in experiment [4], 2 µg/mL (≈ 1.8 µM); in experiment [5], 0.25 µg/mL (≈ 0.225 µM); in experiment [6], 0.25 µg/mL (≈ 0.225 µM). For the same molecule, the Minimum inhibitory concentration in experiment [7] was 0.25 µg/mL (≈ 0.225 µM); in experiment [8] it was 0.25 µg/mL (≈ 0.225 µM); in experiment [9], 2 µg/mL (≈ 1.8 µM); in experiment [10] it was below 0.125 µg/mL; in experiment [11], 0.25 µg/mL (≈ 0.225 µM); in experiment [12] it was below 0.125 µg/mL. In [13], the Minimum inhibitory concentration came to 2 µg/mL (≈ 1.8 µM).
